# Test results taken from a melting point compilation (Tetko et al.; mined from patent text by program, amines drawn as free bases though some values may be those of a salt).
row,melting point,Compound
1,206 to 207 °C,Cn1c2ccccc2c(=NN=C2NCCS2)c2c(Cl)cccc21
2,127 °C,COc1nc(NCCc2ccc(OC(F)F)cc2)nc(-c2ccc(Cl)c(C(C)(C)O)c2)n1
3,258 to 260 °C,N#Cc1cnn2c(-c3cccnc3)ccnc12
4,191 to 192 °C,CCn1cnc2c(Nc3ccc(C(F)(F)F)cc3)nc(NCCO)nc21
5,190 °C,COc1ccc(-c2[nH]c(-c3ccc(F)cc3)cc2C(=O)N2CCOCC2)cc1OC
6,262 to 264 °C,O=C(O)c1cccnc1Nc1cccc([N+](=O)[O-])c1
7,139 to 141 °C,COC(=O)c1nc(-c2ccc(Cl)cc2)c(Cl)c(N)c1OC
8,156 to 158 °C,CCOc1ccc(NS(=O)(=O)c2ccc(NN=CCCCN3C(=O)c4ccccc4C3=O)cc2)cc1
9,259 to 261 °C,CC1CCc2c(N3CCC(N(C)C)CC3)c(F)cc3c(=O)c(C(=O)O)cn1c23 (stereo not given)
10,145 to 146 °C,FC(F)C(F)(F)Sc1nc(-c2ccccc2)c(-c2ccccc2)n1C1CCCO1 (stereo not given)
11,161 to 163 °C,CNC(=S)NS(=O)(=O)c1cc(CCNC(=O)/C=C/c2cccs2)ccc1OCCOC(F)(F)F
12,156 to 157 °C,CCOC(=O)c1ccc(-c2nc(COc3ccc(COc4nn(-c5ccccc5)cc4C=O)cc3OC)c(C)o2)s1
13,146 to 148 °C,N=C(Nc1ccc(Cl)cc1)Nc1ncccc1OCc1c(F)cccc1F
14,150 °C,CCCN(CCC)C1Cc2c[nH]c3ccc(C(=O)c4ccccc4)c(c23)C1 (stereo not given)
15,186 to 188 °C,CC(OC(=S)Nc1ccc(-c2ncn(-c3ccc(OC(F)(F)F)cc3)n2)cc1)c1ccc(C(F)(F)F)nc1 (stereo not given)
16,190 to 194 °C,COc1ccc(C(=O)Nc2ccc(C)cc2)cc1N
17,288 to 290 °C,O=C(O)c1cn(-c2ccc(O)cc2)c2cc(F)c(F)cc2c1=O
18,182 to 183 °C,Oc1c(Cl)cc(NCCCCCCBr)cc1Cl
19,180 to 181 °C,CC(C)c1cccc(C(C)C)c1NC(=O)NC1CC(C)(C)c2ccccc2C1(C)C (stereo not given)
20,189 to 192 °C,NC(=S)NN=C(CCCOC(=O)Nc1cccc2ccccc12)c1ccccc1
21,203 to 204 °C,NC(=O)C1CCc2c([nH]c3ccc(Cl)cc23)C1 (stereo not given)
22,105 to 106 °C,Cc1cn(C(C)(C)C(N)=O)nc1-c1ccccc1
23,136 to 139 °C,OCC1Cc2c(c(Cl)cc3c(-c4ccccc4F)noc23)O1 (stereo not given)
24,74.5 to 77 °C,C#CCN1C(=O)CC(c2ccccc2)N=C1c1ccccc1 (stereo not given)

row,melting point,Compound
1,142 to 145 °C,CCOC(=O)c1c(S(=O)C(C)C)c2cc(OCc3ccccc3)ccc2n1C (stereo not given)
2,206 to 208 °C,COc1cccc(NC(=O)NCc2nnc(C)n2-c2sc(C(=O)O)cc2C(=O)c2ccccc2Cl)c1
3,354 to 360 °C,Cc1nc2cc(-c3ccc(C=C4SC(=O)NC4=O)cc3)cc(C34CC5CC(CC(C5)C3)C4)c2o1
4,98 to 99 °C,OCc1cccc(-c2nn(Cc3ccccc3)c3ccccc23)c1
5,107 to 109 °C,CC1=CC(=O)C(C)=C2CC(C)(C)N=C12
6,25.5 to 27 °C,CCC1(C)Cc2ccc(C)cc2C1=O (stereo not given)
7,161 to 166 °C,COC(=O)c1ccc(O)cc1[N+](=O)[O-]
8,180 °C,CCOc1ccc(/C=C(\C)C(=O)O)cc1
9,198 to 199 °C,C[C@@H](Cc1c2n(c3cc(F)c(O)cc13)CCC2)NC(=O)OC(C)(C)C
10,53 to 54 °C,COc1ccc(CN(CCCC(N)=O)Cc2ccc(OC)cc2)cc1
11,126 to 128 °C,COc1cccc(N(CCN2CCC(C(=O)c3ccc(F)cc3)CC2)C(=O)c2ccc(N)cc2)c1
12,87 to 88 °C,COc1ccc2c(c1)C(CCNC(=O)C(F)(F)F)=CC2
13,135 to 140 °C,O=C1Cc2cc(F)ccc2N1c1ccc(F)cc1
14,204 to 208 °C,CC=Cc1cc(OC)c(OC)cc1Cc1cnc(N)nc1N
15,156 to 158 °C,COc1ccc(F)c2c(O)c(C=O)ccc12
16,180 to 181 °C,N#CCCNC(=O)c1n[nH]cc1NC(=O)C1CCCC1
17,170 to 171 °C,O=c1c(Cc2ccccc2)cn(-c2cccc(Cl)c2)c2ncccc12
18,133 to 134 °C,OCC(Nc1nc(-c2ccc(Br)cc2)cs1)C(F)(F)F (stereo not given)
19,> 250 °C,NCc1ccn(C2=CC3=C(CC2)CCc2[nH]c(=O)c(=O)n(O)c23)c1
20,76 to 78 °C,Nc1sc2c(c1C(=O)c1ccc3ccccc3c1)CCC(Cc1ccc([N+](=O)[O-])cc1)C2 (stereo not given)
21,158 to 159 °C,O=C(N[C@H](Cc1cccc(C(F)(F)F)c1)[C@@H](O)c1ccc(F)cc1)c1cccc2ccccc12 (racemic)
22,215 °C,CCOc1cc(-c2cc(C(F)(F)F)n3ncc(C(=O)Nc4cccc(S(C)(=O)=O)c4)c3n2)ccc1C(F)(F)F
23,109 to 115 °C,OCCC(c1ccccc1)C(O)(c1ccccc1)c1ccc(OCc2ccccc2)cc1 (stereo not given)
24,96 to 98 °C,CN(C)C(=O)c1cc(CN2C(=O)C3(COc4cc5c(cc43)OCO5)c3ccccc32)oc1C(F)(F)F (stereo not given)

row,melting point,Compound
1,113 to 114 °C,COc1ccc2c(c1)OCC(c1ccccc1)C2c1ccc(OCCN2CCCC2)cc1 (stereo not given)
2,129 to 130 °C,OCc1ccc(-c2c3ccccc3nn2Cc2ccco2)cc1
3,108 to 109 °C,COC(=O)C1CCCc2c(-c3ccc(Cl)cc3)nsc2C1 (stereo not given)
4,176 °C,COc1ccc2c(ccc3c4ccc(OC)cc4c(=O)n(-c4ccc(OCCN5CCCCC5)cc4)c23)c1
5,113 to 115 °C,COC(=O)c1ccc2c(c1)C(c1ccccn1)CC(C)(C)O2 (stereo not given)
6,313 to 315 °C,Cc1cc(-n2cc(-c3ccc(S(C)=O)cc3)nc2C)cc2ccc(=O)[nH]c12 (stereo not given)
7,168 to 170 °C,Cc1nc(Cn2c(=O)sc3cc(F)c(N=C=S)cc32)no1
8,187 to 188 °C,CC(C)(C)OC(=O)N[C@@H](Cc1ccccc1)[C@@H](O)C[C@@H](Cc1ccccc1)c1ncn[nH]1
9,142 to 144 °C,O=C1CCc2cc(Cl)ccc2C(=O)CCCN1
10,76 to 80 °C,O=C1CCc2ccc(OCCCl)cc21
11,152 °C,OC(c1ccccc1)(c1cccc(C(F)(F)F)c1)c1ncc[nH]1 (stereo not given)
12,130 to 132 °C,COc1cc(N)c(Cl)cc1C(=O)NCC1CCN(CCCCCC(=O)c2csc3ccccc23)CC1
13,55 °C,Fc1cc(N2CCN(CCc3coc4ccc(F)cc34)CC2)c2ncccc2c1
14,183 to 184 °C,CC(C)(C)OC(=O)COc1ccc2sc(-c3ccccn3)nc(=O)c2c1
15,68 to 70 °C,COc1ccc(Cc2cc(I)ccc2OC)cn1
16,140 to 141 °C,O=C(O)CCCNC(=O)c1cc(Br)no1
17,163 °C,O=S1(=O)N[C@@H](c2cccc(Br)c2)c2ccccc21
18,106 to 108 °C,CCOC(=O)C1=C(C)NC(=S)N(C(=O)OCC)C1c1ccccc1C(F)(F)F (stereo not given)
19,170 to 172 °C,COc1ccc(-n2c3ccccc3c3cc(C(C#N)=C(C#N)c4cc(C(F)(F)F)cc(C(F)(F)F)c4)ccc32)cc1
20,94 to 96 °C,CNC(=O)CCn1ncccc1=O
21,62 to 63 °C,COc1ccccc1SCCCCCCCC(=O)O
22,166 to 168 °C,O=C(c1ccccc1)N1CCNc2ncccc21
23,91 °C,O=C(CCCC(=O)N1C(=O)OC[C@@H]1c1ccccc1)c1ccc(F)cc1
24,93 to 94 °C,O=C(c1ccoc1)N1CCC(O)(C#Cc2cccc(Cl)c2)CC1

row,melting point,Compound
1,122 to 123 °C,CC(C)(C)OC(=O)NC(C)(C)c1ccc(C(=O)CC#N)cc1
2,220 to 221 °C,Cn1ncc2c(=O)n3ccsc3nc21
3,251 °C,NS(=O)(=O)c1cccc(-c2noc(-c3cnn4c(C(F)(F)F)cc(-c5cccc(C(F)(F)F)c5)nc34)n2)c1
4,122 to 123 °C,Cc1ccc(-c2ncc(C)cn2)cc1
5,146 to 147 °C,COc1ccc2ccc(CC3=NOS(=O)N3)cc2c1 (stereo not given)
6,236 to 238 °C,N#Cc1c(-c2cccc(N)c2)cc(-c2ccccc2O)nc1NC(=O)C1CCCCC1
7,100 to 102 °C,CCCCOCCOc1ccc(-c2ccc3c(c2)C=C(C(=O)Nc2ccc([C@H](O)c4ccccn4)cc2)CCN3C(=O)C(F)(F)F)cc1
8,245 to 248 °C,O=C(O)c1cc(O)c(I)c(O)c1
9,183 to 189 °C,CN1C(=O)CC[C@]2(C)c3ccc(-c4ccc5c(c4)OCCO5)cc3CC[C@@H]12
10,207 to 209 °C,O=C(NCc1ccc(Cl)cc1)c1cn(-c2ccccc2)c2oc(CCl)cc2c1=O
11,256 to 259 °C,CC(=O)Nc1c(-c2ccc(-c3ccccc3)cc2)nc2ccc(F)cc2c1C(=O)O
12,136 to 137 °C,COc1cc(N)c(C)cc1N=Nc1ccc([N+](=O)[O-])cc1
13,176 to 182 °C,CCC12CCC3C4=C(CC(OC)=CC4)C(C)CC3C1CCC2O (stereo not given)
14,112 °C,CCc1ccc2[nH]c(C(=O)OC)cc2c1
15,126 °C,COC(=O)c1ccc2oc3ccccc3c2c1C(=O)OC
16,142 to 143 °C,CC(C)c1cccc(C(C)C)c1N=C(c1ccccc1)N(CC(=O)c1ccccc1)c1c(C(C)C)cccc1C(C)C
17,99 to 101 °C,OC(CCN1CCC(c2ccccc2)CC1)c1ccc(-c2ccccc2)cc1 (stereo not given)
18,240 to 242 °C,COc1ccc(OC)c2c(Nc3ccc(C)c(O)c3)c(C#N)cnc12
19,190 to 191 °C,COc1cc(C(=O)O)ccc1C(C)c1c[nH]c2ccc(C(=O)NCCC(C)C)cc12 (stereo not given)
20,101 to 103 °C,COc1ccc(CCNCC(O)c2cccc(Cl)c2)cc1 (stereo not given)
21,100 to 102 °C,C[C@H]1C=CC(S(=O)(=O)c2ccccc2)=C[C@H](C)[C@H]1O
22,210 to 213 °C,COC(c1ccccc1Cl)c1cc(Cl)ccc1-c1c(C(=O)O)cnn1C (stereo not given)
23,95 to 99 °C,CC(=O)Nc1ccc(OC(=O)C(CSSCC(NC(C)=O)C(=O)O)NC(C)=O)cc1 (stereo not given)

row,Compound,melting point
1,CCCCCCC(C)(C)c1ccc(C2=CCCC3(C2)OCCO3)c(O)c1,97 to 98 °C
2,Sc1nsnc1C12CN3CC1C2C3,205 to 207 °C
3,O=C1C=C(NC(=O)C(=O)c2cn(Cc3ccc(F)cc3)c3ccccc23)CO1,260 to 262 °C
4,Nc1c(F)c(N2CCNCC2)cc2c1c(=O)c(C(=O)O)cn2C1COC1,244 to 246 °C
5,CC(CNC(=O)CN1C(=O)CCC1C)N1CCCCC1 (stereo not given),111 to 112 °C
